ChEMBL document CHEMBL1153751, “Biologically active tetranorditerpenoids from the fungus Sclerotinia homoeocarpa causal agent of dollar spot in turfgrass” (J Nat Prod, 2009)
In brackets after ≈: the same amount, converted by molar mass. Activity calls are given as the source filed them. No cut-off for these calls is given here.

Assays:
Plasmodium falciparum [1] = experiment: microbe, parasite or virus in culture; conditions: W2, 72 h
Vero [2] = experiment: Cytotoxicity against african green monkey Vero cells after 48 hrs by neutral red dye staining; type: cell-based; conditions: Chlorocebus sabaeus
KB [3] = experiment: Cytotoxicity against human KB cells after 48 hrs by neutral red dye staining; type: functional, cell-based
Lemna aequinoctialis = experiment: Phytotoxicity against Lemna paucicostata after 7 days; type: functional, organism-based; conditions: 168 h, read-out: I50
Lactuca sativa [4] = experiment: Phytotoxicity against Lactuca sativa at 0.1 mg/ml; type: functional, organism-based
SK-OV-3 [5] = experiment: Cytotoxicity against human SKOV3 cells after 48 hrs by neutral red dye staining; type: functional, cell-based; conditions: SK-OV-3, 48 h
Agrostis stolonifera [6] = experiment: Phytotoxicity against Agrostis stolonifera at 0.001 mg/ml; type: functional, organism-based
BT-549 [7] = experiment: Cytotoxicity against human BT549 cells after 48 hrs by neutral red dye staining; type: functional, cell-based; conditions: BT-549, 48 h
[8] = Cytotoxicity against pig LLC-PK11 cells after 48 hrs by neutral red dye staining; type: functional, cell-based; conditions: Sus scrofa, LLC-PK11, 48 h
SK-MEL [9] = experiment: Cytotoxicity against human SK-MEL cells after 48 hrs by neutral red dye staining; type: functional, cell-based
Agrostis stolonifera [10] = experiment: Phytotoxicity against Agrostis stolonifera at 0.1 mg/ml; type: functional, organism-based
Lactuca sativa [11] = experiment: Phytotoxicity against Lactuca sativa at 0.01 mg/ml; type: functional, organism-based
Lactuca sativa [12] = experiment: Phytotoxicity against Lactuca sativa at 0.001 mg/ml; type: functional, organism-based
Agrostis stolonifera [13] = experiment: Phytotoxicity against Agrostis stolonifera at 1 mg/ml; type: functional, organism-based
Lactuca sativa [14] = experiment: Phytotoxicity against Lactuca sativa at 1 mg/ml; type: functional, organism-based
Plasmodium falciparum [15] = experiment: microbe, parasite or virus in culture; conditions: D6, 72 h
BT-549 [16] = experiment: Cytotoxicity against human BT549 cells at 10 ug/ml after 48 hrs by neutral red dye staining; type: functional, cell-based
Plasmodium falciparum [17] = experiment: Antiplasmodial activity against chloroquine-sensitive Plasmodium falciparum D6 assessed as LDH activity at 4760 ng/ml after 72 hrs by malstat reagent method; type: functional, organism-based
Vero [18] = experiment: Cytotoxicity against african green monkey Vero cells at 4760 ng/ml after 48 hrs by neutral red dye staining; type: cell-based; conditions: Chlorocebus sabaeus
KB [19] = experiment: Cytotoxicity against human KB cells at 10 ug/ml after 48 hrs by neutral red dye staining; type: functional, cell-based
[20] = Cytotoxicity against pig LLC-PK11 cells at 10 ug/ml after 48 hrs by neutral red dye staining; type: functional, cell-based, Sus scrofa
SK-OV-3 [21] = experiment: Cytotoxicity against human SKOV3 cells at 10 ug/ml after 48 hrs by neutral red dye staining; type: functional, cell-based
Plasmodium falciparum [22] = experiment: Antiplasmodial activity against chloroquine-resistant Plasmodium falciparum W2 assessed as LDH activity at 4760 ng/ml after 72 hrs by malstat reagent method; type: functional, organism-based
SK-MEL [23] = experiment: Cytotoxicity against human SK-MEL cells at 10 ug/ml after 48 hrs by neutral red dye staining; type: functional, cell-based
Agrostis stolonifera [24] = experiment: Phytotoxicity against Agrostis stolonifera at 0.01 mg/ml; type: functional, organism-based

Row | SMILES | IC50 (Plasmodium falciparum [1]) [µg/mL] | IC50 (Vero [2]) [µg/mL] | IC50 (KB [3]) [µg/mL] | IC50 (Lemna aequinoctialis) [nM] | Activity (Lactuca sativa [4]) | IC50 (SK-OV-3 [5]) [µg/mL] | Activity (Agrostis stolonifera [6]) | IC50 (BT-549 [7]) [µg/mL] | IC50 [8] [µg/mL] | IC50 (SK-MEL [9]) [µg/mL] | Activity (Agrostis stolonifera [10]) | Activity (Lactuca sativa [11]) | Activity (Lactuca sativa [12]) | Activity (Agrostis stolonifera [13]) | Activity (Lactuca sativa [14]) | IC50 (Plasmodium falciparum [15]) [µg/mL] | inhibition (INH) (Vero [18]) | inhibition (KB [19]) | inhibition (SK-OV-3 [21]) | other results
1 | C[C@@]12C=C[C@H](O)[C@]3(C)C(=O)O[C@H](C=C4COC(=O)C=C41)C23 (some centres not stated) | 0.032 (≈ 0.111 µM) | 0.95 (≈ 3.3 µM) | 0.6 (≈ 2.08 µM) | 790 | Active | 1.1 (≈ 3.82 µM) | inactive | 1.2 (≈ 4.16 µM) | 1.1 (≈ 3.82 µM) | 0.12 (≈ 0.416 µM) | Active | Active | inactive | Active | Active |  |  |  |  | 
2 | C[C@@]12C[C@@H](O)C[C@]3(C)C4=CC(=O)OC[C@]45O[C@@H]5[C@@H](OC1=O)C23 (some centres not stated) |  | 3.3 (≈ 10.8 µM) | 6.8 (≈ 22.2 µM) | 3320 | Active | 10 (≈ 32.6 µM) | inactive | 10 (≈ 32.6 µM) | 4.2 (≈ 13.7 µM) | 1.1 (≈ 3.59 µM) | Active |  | inactive | Active | Active | 0.74 (≈ 2.42 µM) |  |  |  | 
3 | C[C@@]12CC[C@@H](O)[C@]3(C)C4=CC(=O)OC[C@]45O[C@@H]5[C@@H](OC1=O)C23 (some centres not stated) |  |  |  | 6420 | Active |  | inactive |  |  | 10 (≈ 32.6 µM) | Active |  |  | Active | Active |  | Not Active | inactive | inactive | inhibition (BT-549 [16]): inactive; inhibition (Plasmodium falciparum [17]): inactive; Cytotoxicity at 10 ug/ml [20]: Not Active; inhibition (Plasmodium falciparum [22]): inactive
4 | C[C@@H]1CC[C@H]2[C@@H](C)C(=O)O[C@@H]3O[C@@]4(C)CC[C@@H]1[C@]32OO4 [ARTEMISININ] | 0.0038 (≈ 0.0135 µM) |  |  |  |  |  |  |  |  |  |  |  |  |  |  | 0.0047 (≈ 0.0166 µM) | Not Active |  |  | 
5 | C[C@]12CC[C@@H](O)[C@]3(C)C(=O)O[C@@H](C13)[C@H]1O[C@]13COC(=O)C=C32 (some centres not stated) |  |  |  |  |  |  | inactive |  |  |  |  | inactive | inactive | Active | Active |  | Not Active | inactive | inactive | inhibition (BT-549 [16]): inactive; inhibition (Plasmodium falciparum [17]): inactive; Cytotoxicity at 10 ug/ml [20]: Not Active; inhibition (Plasmodium falciparum [22]): inactive; inhibition (SK-MEL [23]): inactive; Activity (Agrostis stolonifera [24]): inactive
6 | C[C@@]12C=CC[C@]3(C)C(=O)O[C@H](C=C4COC(=O)C=C41)C23 (some centres not stated) | 0.13 (≈ 0.477 µM) | 3 (≈ 11 µM) | 4.3 (≈ 15.8 µM) | 730 | Active | 6 (≈ 22 µM) | inactive | 9.6 (≈ 35.3 µM) | 10 (≈ 36.7 µM) | 2.3 (≈ 8.45 µM) | Active |  | inactive | Active | Active |  |  |  |  | 
7 | C[C@]12C=CC[C@]3(C)C(=O)O[C@@H](C13)[C@H]1O[C@]13COC(=O)C=C32 (some centres not stated) | 2.3 (≈ 7.98 µM) |  |  | 650 | Active |  |  | > 10 | > 10 | 2.8 (≈ 9.71 µM) | Active |  | inactive | Active | Active | 2.3 (≈ 7.98 µM) | Not Active | inactive | inactive | 
8 | C=C1C(O)CC2[C@](C)(CCC[C@]2(C)C(=O)O)C1CC(=O)O (some centres not stated) |  |  |  |  | inactive |  | inactive |  |  |  | inactive | inactive | inactive | inactive |  |  | Not Active | inactive | inactive | inhibition (BT-549 [16]): inactive; inhibition (Plasmodium falciparum [17]): inactive; Cytotoxicity at 10 ug/ml [20]: Not Active; inhibition (Plasmodium falciparum [22]): inactive; inhibition (SK-MEL [23]): inactive; Activity (Agrostis stolonifera [24]): inactive
9 | C[C@@]12CCC[C@]3(C)C4=CC(=O)OCC4=C[C@@H](OC1=O)C23 (some centres not stated) |  | 3.7 (≈ 13.5 µM) | 4.2 (≈ 15.3 µM) | 950 | Active | > 10 | inactive | > 10 | 5.4 (≈ 19.7 µM) | 1.1 (≈ 4.01 µM) | Active |  | inactive | Active | Active | 0.3 (≈ 1.09 µM) |  |  |  | 
10 | C[C@@]12C[C@@H](O)C[C@]3(C)C4=CC(=O)OCC4=C[C@@H](OC1=O)C23 (some centres not stated) |  | 1 (≈ 3.44 µM) | 2.1 (≈ 7.23 µM) | 9090 | Active | 3.2 (≈ 11 µM) |  | 4.7 (≈ 16.2 µM) | 1.2 (≈ 4.13 µM) | 0.41 (≈ 1.41 µM) | Active |  |  | Active | Active |  |  |  |  | 
11 | C[C@]12C=C[C@H](O)[C@]3(C)C(=O)O[C@@H](C13)[C@H]1O[C@]13COC(=O)C=C32 (some centres not stated) | 0.6 (≈ 1.97 µM) | 1.5 (≈ 4.93 µM) | 4.4 (≈ 14.5 µM) | 390 | Active | 8 (≈ 26.3 µM) |  | 4.8 (≈ 15.8 µM) | 2.8 (≈ 9.2 µM) | 0.58 (≈ 1.91 µM) | Active | Active |  | Active | Active | 0.75 (≈ 2.46 µM) |  |  |  | 
12 | C[C@@]12CC[C@@H](O)[C@]3(C)C4=CC(=O)OCC4=C[C@@H](OC1=O)C23 (some centres not stated) |  | 4.76 (≈ 16.4 µM) | > 10 | 547000 | Active | > 10 | inactive | > 10 | > 10 | 3.3 (≈ 11.4 µM) | Active |  | inactive | Active | Active |  |  |  |  | 
13 | CCN(CC)CCCC(C)Nc1ccnc2cc(Cl)ccc12 (configuration not stated) [CHLOROQUINE] |  |  |  |  |  |  |  |  |  |  |  |  |  |  |  |  | Not Active |  |  | 
14 | C[C@@]12CC[C@@H](O)[C@]3(C)C(=O)O[C@H](C=C4COC(=O)C=C41)C23 (some centres not stated) |  |  |  |  |  |  | inactive |  |  |  |  | inactive | inactive | Active | Active |  | Not Active | inactive | inactive | inhibition (BT-549 [16]): inactive; inhibition (Plasmodium falciparum [17]): inactive; Cytotoxicity at 10 ug/ml [20]: Not Active; inhibition (Plasmodium falciparum [22]): inactive; inhibition (SK-MEL [23]): inactive; Activity (Agrostis stolonifera [24]): inactive
15 | C[C@]12CCC[C@](C)(C(=O)O)[C@@H]1C=C[C@]1(O)COC(=O)C[C@H]21 [OIDIOLACTONE E] | 0.19 (≈ 0.645 µM) | 1.7 (≈ 5.78 µM) | 4.5 (≈ 15.3 µM) |  |  | 6.3 (≈ 21.4 µM) | inactive | 9 (≈ 30.6 µM) | 4.8 (≈ 16.3 µM) | 0.72 (≈ 2.45 µM) |  |  | inactive | Active | Active | 0.25 (≈ 0.849 µM) |  |  |  | 
